{
  "source": "patent US11083709B2",
  "about": "“Compounds, compositions, and methods of increasing CFTR activity” (Proteostasis Therapeutics, Inc., priority 2015, dated 2021)",
  "key": {"[1]": {"system": "CFTR in R117H/F508del HBEs", "assay": "Ussing measurements, R117H/F508del HBEs", "type": "cell-based, human", "conditions": "genotype R117H/F508del", "description": "(§1) As discussed above, Ussing measurements was used to measure CFTR activity. In this method, primary lung epithelial cells (hBEs) with a Cystic Fibrosis-causing class III mutation were differentiated for a minimum of 4 weeks in an air-liquid interface on SnapWell™ filter plates prior to the Ussing measurements. Cells were apically mucus-washed for 30 minutes prior to treatment with compounds. The basolateral media was removed and replaced with media containing the compound of interest diluted to its final concentration from DMSO stocks. Treated cells were incubated at 37° C. and 5% CO2 for 24 hours. At the end of the treatment period, the cells on filters were transferred to the Ussing chamber and equilibrated for 30 minutes. The short-circuit current was measured in voltage clamp-mode (Vhold=0 mV), and the entire assay was conducted at a temperature of 36° C.-36.5° C. Once the voltages stabilized, the chambers were clamped, and data was recorded by pulse readings every 5 seconds. Following baseline current stabilization, the following additions were applied and the changes in current and resistance of the cells was monitored: • 1. Benzamil to the apical chamber to inhibit ENaC sodium channel. • 2. Forskolin to both chambers to activate ΔF508-CFTR by phosphorylation. • 3. Ivacaftor or Genistein to the apical chamber to potentiate ΔF508-CFTR channel opening. • 4. CFTRinh-172 to the apical chamber to inhibit ΔF508-CFTR Cl-conductance.\n(§2) The forskolin-sensitive current and inhibitable current (that potentiated current that is blocked by CFTRinh-172) were measured as the specific activity of the ΔF508-CFTR channel, and increase in response to compound in this activity over that observed in vehicle-treated samples were identified as the correction of ΔF508-CFTR function imparted by the compound tested.\n(§3) The results are shown below in Tables 5 and 6. Compound A is 10 uM and VX-809 is 3 uM and ivacaftor is 1 uM."}, "[2]": {"system": "CFTR in G551D/F508del HBEs", "assay": "Ussing measurements, G551D/F508del HBEs", "type": "cell-based, human", "conditions": "genotype G551D/F508del", "description": "as §1, §2, §3"}, "[3]": {"system": "CFTR, genotype G542X/G542X", "assay": "CFTR activity by mutation type, G542X/G542X (Table 7)", "type": "cell-based, human"}, "[4]": {"molecular_target": "T1, CFTR in F508/F508del HBEs (Homo sapiens, UniProt P13569, DEL508-508)", "T1 construct": "Activity in F508/F508del HBEs (relative); endogenous in cells; host or cells: primary lung epithelial cells (HBEs), genotype F508/F508del [sic]", "T1 sequence (P13569 with tags, fused parts or gaps DEL508-508)": "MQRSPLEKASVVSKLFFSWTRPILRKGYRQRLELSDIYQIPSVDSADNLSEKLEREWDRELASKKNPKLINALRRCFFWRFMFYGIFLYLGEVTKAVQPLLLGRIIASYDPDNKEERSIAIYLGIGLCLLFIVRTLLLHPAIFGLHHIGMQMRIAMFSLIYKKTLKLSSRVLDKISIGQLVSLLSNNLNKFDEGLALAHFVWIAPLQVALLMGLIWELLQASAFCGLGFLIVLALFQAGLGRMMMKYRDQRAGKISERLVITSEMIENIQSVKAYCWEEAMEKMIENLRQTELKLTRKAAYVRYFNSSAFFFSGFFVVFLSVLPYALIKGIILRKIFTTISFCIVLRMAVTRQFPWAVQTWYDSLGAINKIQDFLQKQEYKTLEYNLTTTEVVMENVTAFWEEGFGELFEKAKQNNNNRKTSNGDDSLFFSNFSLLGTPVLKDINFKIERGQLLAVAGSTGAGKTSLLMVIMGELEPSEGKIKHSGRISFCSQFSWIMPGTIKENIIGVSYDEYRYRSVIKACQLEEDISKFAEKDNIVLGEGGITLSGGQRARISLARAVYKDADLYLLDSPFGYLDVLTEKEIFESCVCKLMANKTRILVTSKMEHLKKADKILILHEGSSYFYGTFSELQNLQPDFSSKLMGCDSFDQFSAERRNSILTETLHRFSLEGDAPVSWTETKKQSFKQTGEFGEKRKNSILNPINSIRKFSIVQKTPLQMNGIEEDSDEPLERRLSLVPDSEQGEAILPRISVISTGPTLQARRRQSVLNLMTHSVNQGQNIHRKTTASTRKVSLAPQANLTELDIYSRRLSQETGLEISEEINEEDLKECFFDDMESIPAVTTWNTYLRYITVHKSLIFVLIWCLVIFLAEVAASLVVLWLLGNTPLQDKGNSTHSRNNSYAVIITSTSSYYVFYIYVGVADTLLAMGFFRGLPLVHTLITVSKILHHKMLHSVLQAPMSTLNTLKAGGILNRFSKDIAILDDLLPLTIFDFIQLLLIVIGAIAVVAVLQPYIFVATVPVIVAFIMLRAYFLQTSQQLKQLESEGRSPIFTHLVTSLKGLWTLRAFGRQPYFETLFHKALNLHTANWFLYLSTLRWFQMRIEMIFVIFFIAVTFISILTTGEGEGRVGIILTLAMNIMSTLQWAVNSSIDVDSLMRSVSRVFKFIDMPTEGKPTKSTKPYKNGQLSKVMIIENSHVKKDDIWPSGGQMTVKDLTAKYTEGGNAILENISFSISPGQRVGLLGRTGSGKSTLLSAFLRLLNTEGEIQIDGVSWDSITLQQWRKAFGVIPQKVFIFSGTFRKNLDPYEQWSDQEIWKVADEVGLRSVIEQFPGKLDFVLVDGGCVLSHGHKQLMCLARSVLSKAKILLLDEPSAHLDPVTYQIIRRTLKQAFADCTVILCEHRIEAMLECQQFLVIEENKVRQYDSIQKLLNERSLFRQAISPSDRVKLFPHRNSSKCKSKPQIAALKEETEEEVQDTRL", "assay": "Ussing measurements, F508del/F508del HBEs", "type": "cell-based", "conditions": "genotype F508del/F508del", "description": "as §1, with “measurements were” for “measurements was”, “Cystic fibrosis causing” for “Cystic Fibrosis-causing”, “class I” for “class III”, “DMSO or aqueous” for “DMSO”, “data were” for “data was”, “cells were” for “cells was”\nas §2, with “that was” for “that is”\nThe results are shown below in Tables 3 and 4. Compound A is 10 uM and VX-809 is 3 uM and ivacaftor is 1 uM."}, "[5]": {"conditions": "compound A 10uM + ivacaftor 1uM, relative activity of 100% = ivacaftor"}, "[6]": {"conditions": "compound A 10uM, relative activity of 100% = ivacaftor (1uM)"}},
  "data": [
    {"smiles": "C[C@@H](O)c1nnc([C@H]2C[C@H](NC(=O)c3cc(-c4ccccc4)no3)C2)o1", "note": "[Example 6, N-(trans-3-(5-((R)-1-hydroxyethyl)-1,3,4-oxadiazol-2-yl)cyclobutyl)-3-phenylisoxazole-5-carboxamide]", "values": [
      {"measurement": "Combination with ivacaftor, activity", "setting": "[1]; [5]", "result": "++++ (++++ indicates activity at 10uM of >150% of the indicated relative activity treatment)"},
      {"measurement": "Stand Alone activity", "setting": "[1]; [6]", "result": "+++ (+++ indicates activity at 10uM of 100% to <150% of the indicated relative activity treatment)"},
      {"measurement": "Combination with ivacaftor, activity", "setting": "[2]; [5]", "result": "++++ (++++ indicates activity at 10uM of >150% of the indicated relative activity treatment)"},
      {"measurement": "Stand Alone activity", "setting": "[2]; [6]", "result": "+ (+ indicates activity at 10uM of 15% to <50% of the indicated relative activity treatment)"},
      {"measurement": "Combination with NB124, activity", "setting": "[3]; compound A 10uM + NB124 250 ug/ml, relative activity of 100% = NB124", "result": "++++ (++++ indicates activity at 10uM of >150% of the indicated relative activity treatment)"},
      {"measurement": "Stand Alone activity", "setting": "[3]; compound A 10uM, relative activity of 100% = NB124 (250 ug/ml)", "result": "++ (++ indicates activity at 10uM of 50% to <100% of the indicated relative activity treatment)"},
      {"measurement": "Combination with ivacaftor and VX-661, activity", "setting": "[4]; compound A 10uM + ivacaftor 1uM + VX-661 3 uM, relative activity of 100% = ivacaftor and VX-661", "result": "++++ (++++ indicates activity at 10uM of >150% of the indicated relative activity treatment)"},
      {"measurement": "Combination with ivacaftor and lumacaftor, activity", "setting": "[4]; compound A 10uM + ivacaftor 1uM + lumacaftor 3 uM, relative activity of 100% = ivacaftor and lumacaftor", "result": "++++ (++++ indicates activity at 10uM of >150% of the indicated relative activity treatment)"},
      {"measurement": "Stand Alone activity", "setting": "[4]; compound A 10uM, relative activity of 100% = ivacaftor (1uM) and lumacaftor (3 uM)", "result": "+ (+ indicates activity at 10uM of 15% to <50% of the indicated relative activity treatment)"}
    ]}
  ]
}
